Tests used:
[1] = target: T1, thioredoxin reductase 1 (TrxR1) (Rattus norvegicus, UniProt O89049); assay: NADPH-dependent DTNB reduction assay with purified enzyme; irreversibility tested by desalting; format: biochemical
T1 construct: gene Txnrd1; recombinant selenocysteine-containing rat TrxR1
T1 sequence (O89049 1-499): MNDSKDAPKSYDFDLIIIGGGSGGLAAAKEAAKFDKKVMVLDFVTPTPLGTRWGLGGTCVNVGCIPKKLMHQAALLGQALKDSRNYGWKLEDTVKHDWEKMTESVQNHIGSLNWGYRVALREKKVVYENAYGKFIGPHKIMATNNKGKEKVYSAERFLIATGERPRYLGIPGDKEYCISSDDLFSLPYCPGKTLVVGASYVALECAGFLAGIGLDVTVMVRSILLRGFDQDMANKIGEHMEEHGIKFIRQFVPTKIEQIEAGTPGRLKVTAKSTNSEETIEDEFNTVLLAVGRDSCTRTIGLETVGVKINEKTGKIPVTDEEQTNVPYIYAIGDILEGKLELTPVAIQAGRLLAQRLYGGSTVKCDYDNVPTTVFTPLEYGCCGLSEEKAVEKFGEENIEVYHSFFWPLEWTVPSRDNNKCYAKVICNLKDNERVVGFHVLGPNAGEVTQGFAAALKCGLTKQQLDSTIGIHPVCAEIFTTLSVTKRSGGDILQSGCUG

[2] = target: T1, thioredoxin reductase 1 (TrxR1); assay: NADPH-dependent juglone reduction by purified enzyme, NADPH consumption at […] nm; format: biochemical

| SMILES | NADPH-dependent DTNB reduction assay with purified enzyme; irreversibility teste [1] | NADPH-dependent juglone reduction by purified enzyme, NADPH consumption at 340 n [2] |
| --- | --- | --- |
| O=S(=O)(CCSc1nc2ccccc2o1)c1nc2ccccc2s1 [MJ25, 2-{[2-(1,3-benzothiazol-2-ylsulfonyl)ethyl]thio}-1,3-benzoxazole] | we also confirmed that repurchased MJ25 inhibited recombinant TrxR1 (Figure 4a) | – |
| CC[P](CC)(CC)=[Au][S][C@@H]1O[C@H](COC(C)=O)[C@@H](OC(C)=O)[C@H](OC(C)=O)[C@H]1OC(C)=O [auranofin] | Both MJ25 and auranofin were found to inhibit TrxR1 irreversibly. | – |
| O=C1C=CC(=O)c2c(O)cccc21 [juglone, 5-hydroxy-1,4-naphthoquinone] | – | using juglone as a Sec-independent substrate and the DTNB assay as a Sec-dependent activity control |
